# Biological target: T1, Human recombinant His-tagged PFKFB3 (Homo sapiens, UniProt Q16875)
# T1 construct: His; made in house
# Assay: PFKFB3 IC50 Determination Assay (in vitro kinase assay, modified ADP-Glo system)
# Type: biochemical
# Settings: ATP 20 μM and fructose-6-phosphate 2 μM (Km), 25 nM PFKFB3, 2 h, rt, ADP-Glo luminescence
# Procedure, shortened: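 In-house His-tagged human PFKFB3 phosphorylates fructose-6-phosphate with ATP and substrate at Km; ADP measured by luminescence with 5x-diluted ADP-Glo reagents. Compounds tested at 10 concentrations, routinely 100 μM to 1 nM, in duplicate, 6.7% final DMSO. Data normalized to no-substrate control, expressed as % positive control; IC50 by four-parameter fit.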
# T1 sequence (Q16875 whole entry): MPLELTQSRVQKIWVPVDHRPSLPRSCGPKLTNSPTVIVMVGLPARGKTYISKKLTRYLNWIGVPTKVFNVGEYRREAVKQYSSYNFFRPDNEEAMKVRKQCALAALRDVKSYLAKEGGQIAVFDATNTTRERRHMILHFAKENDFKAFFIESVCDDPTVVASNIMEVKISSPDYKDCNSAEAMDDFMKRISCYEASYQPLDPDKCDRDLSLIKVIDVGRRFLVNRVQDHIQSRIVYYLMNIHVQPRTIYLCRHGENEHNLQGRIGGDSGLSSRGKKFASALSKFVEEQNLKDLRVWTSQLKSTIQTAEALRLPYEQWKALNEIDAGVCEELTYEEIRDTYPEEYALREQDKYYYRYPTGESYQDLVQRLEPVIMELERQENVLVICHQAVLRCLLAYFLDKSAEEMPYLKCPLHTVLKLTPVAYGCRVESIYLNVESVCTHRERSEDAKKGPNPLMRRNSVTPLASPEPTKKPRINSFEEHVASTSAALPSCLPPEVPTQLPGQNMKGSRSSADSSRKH
row,IC50,SMILES
1,1 to 1000 nM,"Cc1csc2ccc(-c3cc(Nc4ccccc4S(C)(=O)=O)cc4nccnc34)cc12 [Example 191, N-(2-Methanesulfonylphenyl)-8-(3-methyl-1-benzothiophen-5-yl)quinoxalin-6-amine]"
2,1 to 1000 nM,"Cc1coc2ccc(-c3cc(Nc4cnccc4C#N)cc4nccnc34)cc12 [Example 24, 3-{[8-(3-methyl-1-benzofuran-5-yl)quinoxalin-6-yl]amino}pyridine-4-carbonitrile]"
3,1 to 1000 nM,"Cc1csc2ccc(-c3cc(Nc4ccccc4S(=O)(=O)NC4CCN(C)C4)cc4nccnc34)cc12 (centres unmarked) [Example 199, 2-{[8-(3-Methyl-1-benzothiophen-5-yl)quinoxalin-6-yl]amino}-N-(1-methylpyrrolidin-3-yl)benzene-1-sulfonamide]"
4,1 to 1000 nM,"CN1CCN(c2ccncc2Nc2cc(-c3ccc4ccn(C)c4c3)c3nccnc3c2)CC1 [Example 40, 8-(1-Methyl-1H-indol-6-yl)-N-[4-(4-methylpiperazin-1-yl)pyridin-3-yl]quinoxalin-6-amine]"
5,10000 to 100000 nM,"CS(=O)(=O)c1ccncc1Nc1cc(-c2ccc3occ(CCl)c3c2)c2nccnc2c1 [Example 58, 8-[3-(Chloromethyl)-1-benzofuran-5-yl]-N-(4-methanesulfonylpyridin-3-yl)quinoxalin-6-amine]"
6,1 to 1000 nM,"Cc1csc2ccc(-c3cc(Nc4cnccc4C#N)cc4nccnc34)cc12 [Example 150, 3-{[8-(3-Methyl-1-benzothiophen-5-yl)quinoxalin-6-yl]amino}pyridine-4-carbonitrile]"
7,1000 to 10000 nM,"CC(=O)N1CCN(c2ccc(S(C)(=O)=O)c(Nc3cc(-c4ccc5ccn(C)c5c4)c4nccnc4c3)c2)CC1 [Example 46, 1-[4-(4-Methanesulfonyl-3-{[8-(1-methyl-1H-indol-6-yl)quinoxalin-6-yl]amino}phenyl)piperazin-1-yl]ethan-1-one]"
8,1000 to 10000 nM,"CC(=O)Nc1cc2cc(-c3cc(Nc4cnccc4S(C)(=O)=O)cc4nccnc34)ccc2s1 [Example 200, N-(5-{7-[(4-Methanesulfonylpyridin-3-yl)amino]quinoxalin-5-yl}-1-benzothiophen-2-yl)acetamide]"
9,1 to 1000 nM,"Cn1ccc2ccc(-c3cc(Nc4cc(-c5ncco5)ccc4S(C)(=O)=O)cc4nccnc34)cc21 [Example 94, N-[2-Methanesulfonyl-5-(1,3-oxazol-2-yl)phenyl]-8-(1-methyl-1H-indol-6-yl)quinoxalin-6-amine]"
10,10000 to 100000 nM,"N#Cc1cnccc1Nc1cc(Cl)c2nccnc2c1 [Example 146, 4-[(8-chloroquinoxalin-6-yl)amino]pyridine-3-carbonitrile]"
11,1 to 1000 nM,"Cc1ccc(C)c(-c2cc(Nc3cnccc3S(C)(=O)=O)cc3nccnc23)c1 [Example 39, 8-(2,5-Dimethylphenyl)-N-(4-methanesulfonylpyridin-3-yl)quinoxalin-6-amine]"
12,1000 to 10000 nM,"CN(c1cc(-c2ccc3ccn(C)c3c2)c2nccnc2c1)c1cnccc1C#N [Example 91, 3-{Methyl[8-(1-methyl-1H-indol-6-yl)quinoxalin-6-yl]amino}pyridine-4-carbonitrile]"
13,1000 to 10000 nM,"COc1ccc(Cl)c(-c2cc(Nc3cnccc3S(C)(=O)=O)cc3nccnc23)c1 [Example 5, 8-(2-Chloro-5-methoxyphenyl)-N-(4-methanesulfonylpyridin-3-yl)quinoxalin-6-amine]"
14,1 to 1000 nM,"CN1CCOC(CNC(=O)c2ccncc2Nc2cc(-c3ccc4ccn(C)c4c3)c3nccnc3c2)C1 (centres unmarked) [Example 137, 3-{[8-(1-methyl-1H-indol-6-yl)quinoxalin-6-yl]amino}-N-[(4-methylmorpholin-2-yl)methyl]pyridine-4-carboxamide]"
15,1 to 1000 nM,"Cn1ccc2ccc(-c3cc(Nc4cc(N)ccc4S(C)(=O)=O)cc4nccnc34)cc21 [Example 36, 6-Methanesulfonyl-N1-[8-(1-methyl-1H-indol-6-yl)quinoxalin-6-yl]benzene-1,3-diamine]"
16,1 to 1000 nM,"Cn1ccc2ccc(-c3cc(Nc4cc(-n5ccnc5)ccc4S(C)(=O)=O)cc4nccnc34)cc21 [Example 42, N-[5-(1H-Imidazol-1-yl)-2-methanesulfonylphenyl]-8-(1-methyl-1H-indol-6-yl)quinoxalin-6-amine]"

row,IC50,SMILES
1,1000 to 10000 nM,"Cc1ccc(N)c(-c2cc(Nc3cnccc3S(C)(=O)=O)cc3nccnc23)c1 [Example 66, 8-(2-Amino-5-methylphenyl)-N-(4-methanesulfonylpyridin-3-yl)quinoxalin-6-amine]"
2,1000 to 10000 nM,"Cn1ccc2ccc(-c3cc(Nc4ncncc4S(C)(=O)=O)cc4nccnc34)cc21 [Example 27, N-(5-Methanesulfonylpyrimidin-4-yl)-8-(1-methyl-1H-indol-6-yl)quinoxalin-6-amine]"
3,10000 to 100000 nM,"Cn1ccc2cc(-c3cc(Nc4cnccc4-c4cncnc4)cc4nccnc34)ccc21 [Example 33, 8-(1-Methyl-1H-indol-5-yl)-N-[4-(pyrimidin-5-yl)pyridin-3-yl]quinoxalin-6-amine]"
4,1 to 1000 nM,"Cn1ccc2ccc(-c3cc(Nc4c[n+]([O-])ccc4S(C)(=O)=O)cc4nccnc34)cc21 [Example 44, 4-Methanesulfonyl-3-{[8-(1-methyl-1H-indol-6-yl)quinoxalin-6-yl]amino}pyridin-1-ium-1-olate]"
5,10000 to 100000 nM,"Cn1ccc2ccc(-c3cc(Oc4cnccc4C(=O)O)cc4nccnc34)cc21 [Example 198, 3-{[8-(1-methyl-1H-indol-6-yl)quinoxalin-6-yl]oxy}pyridine-4-carboxylic acid]"
6,1 to 1000 nM,"Cc1cc(Br)ccc1-c1cc(Nc2cnccc2S(C)(=O)=O)cc2nccnc12 [Example 212, 8-(4-Bromo-2-methylphenyl)-N-(4-methanesulfonylpyridin-3-yl)quinoxalin-6-amine]"
7,1 to 1000 nM,"Cn1ccc2ccc(-c3cc(Nc4cnccc4C(=O)Oc4ccnc(N)n4)cc4nccnc34)cc21 [Example 160, 2-Aminopyrimidin-4-yl3-{[8-(1-methyl-1H-indol-6-yl)quinoxalin-6-yl]amino}pyridine-4-carboxylate]"
8,1 to 1000 nM,"Cn1ccc2ccc(-c3cc(Nc4cc(-c5nn[nH]n5)ccc4S(C)(=O)=O)cc4nccnc34)cc21 [Example 43, N-[2-Methanesulfonyl-5-(2H-1,2,3,4-tetrazol-5-yl)phenyl]-8-(1-methyl-1H-indol-6-yl)quinoxalin-6-amine]"
9,10000 to 100000 nM,"CC(C)Oc1cccc(-c2cc(Nc3cnccc3S(C)(=O)=O)cc3nccnc23)c1 [Example 130, N-(4-Methanesulfonylpyridin-3-yl)-8-[3-(propan-2-yloxy)phenyl]quinoxalin-6-amine]"
10,1 to 1000 nM,"Cn1cncc1CNC(=O)c1ccncc1Nc1cc(-c2ccc3ccn(C)c3c2)c2nccnc2c1 [Example 143, N-[(1-methyl-1H-imidazol-5-yl)methyl]-3-{[8-(1-methyl-1H-indol-6-yl)quinoxalin-6-yl]amino}pyridine-4-carboxamide]"
11,1000 to 10000 nM,"Cc1coc2ccc(-c3cc(Nc4cc([N+](=O)[O-])ccc4S(C)(=O)=O)cc4nccnc34)cc12 [Example 103, N-(2-methanesulfonyl-5-nitrophenyl)-8-(3-methyl-1-benzofuran-5-yl)quinoxalin-6-amine]"
12,1 to 1000 nM,"Cc1csc2ccc(-c3cc(Nc4cnccc4C(N)=O)cc4nccnc34)cc12 [Example 205, 3-{[8-(3-Methyl-1-benzothiophen-5-yl)quinoxalin-6-yl]amino}pyridine-4-carboxamide]"
13,1000 to 10000 nM,"COc1ccc(C)c(-c2cc(Nc3cnccc3S(C)(=O)=O)cc3nccnc23)c1 [Example 153, N-(4-Methanesulfonylpyridin-3-yl)-8-(5-methoxy-2-methylphenyl)quinoxalin-6-amine]"
14,1 to 1000 nM,"Cn1ccc2ccc(-c3cc(Nc4cccnc4S(C)(=O)=O)cc4nccnc34)cc21 [Example 6, N-(2-Methanesulfonylpyridin-3-yl)-8-(1-methyl-1H-indol-6-yl)quinoxalin-6-amine]"
15,1000 to 10000 nM,"CN1CCN(c2ccncc2Nc2cc(-c3ccc4c(ccn4C)c3)c3nccnc3c2)CC1 [Example 32, 8-(1-Methyl-1H-indol-5-yl)-N-[4-(4-methylpiperazin-1-yl)pyridin-3-yl]quinoxalin-6-amine]"
16,1 to 1000 nM,"Cc1cc2ccn(C)c2cc1-c1cc(Nc2cnccc2S(C)(=O)=O)cc2nccnc12 [Example 195, 8-(1,5-Dimethyl-1H-indol-6-yl)-N-(4-methanesulfonylpyridin-3-yl)quinoxalin-6-amine]"

# Source: patent US20180118718A1, “Substituted Quinoxaline Derivatives” (Selvita S.A., priority 2015, published 2018)
